Columns and labels:
Format in all cases: cell-based
A. actinomycetemcomitans = assay: Multi-species biofilm composition, absolute abundance (Geq/mL); conditions: repeated rinsing
P. intermedia = assay: as above; conditions: repeated rinsing
Summary of the method: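 CAD-HA disks, Amsterdam Active Adhesion model; biofilms established 24 h (37° C., 170 rpm, microaerophilic: 6% O2, 7% CO2, 7% H2, 80% N2). Then rinsed 3×/day, 3 min (RT, 250 rpm), 3 days, with substrate at 1 M; PBS (pH 5.7) without substrate as control. Values mean ± SD (n = 3) log(Geq/mL).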

[1] = test system: human oral keratinocytes (HOK-18A); assay: IL-8 levels in supernatant of keratinocytes exposed to substrate-treated biofilms; conditions: biofilms treated with substrate 1 M; n = 3
Experimental: Cultures of immortalized human oral keratinocytes (HOK-18A) are grown. […] The IL-8 levels in the cellular supernatant are determined as well. RNA is converted to cDNA and relative expression of inflammatory mediator genes is determined as described above with respect to the cellular housekeeping gene β-actin.

## CC(=O)N[C@H]1C(O)O[C@H](CO)[C@@H](O)[C@@H]1O (stereo partly drawn) [NADG, N-acetyl-D-glucosamine]
A. actinomycetemcomitans; substrate 1% (w/v)
  absolute abundance of A. actinomycetemcomitans (Aa), mean ± SD log (Geq/mL): 9.11 ± 0.2 log (Geq/mL)
A. actinomycetemcomitans; substrate 1 M in PBS, n = 3
  absolute abundance of A. actinomycetemcomitans (Aa), mean ± SD log (Geq/mL): 8.15 ± 0.21^∗ log (Geq/mL)
P. intermedia; substrate 1% (w/v)
  absolute abundance of P. intermedia (Pi), mean ± SD log (Geq/mL): 8.17 ± 0.22 log (Geq/mL)
P. intermedia; substrate 1 M in PBS, n = 3
  absolute abundance of P. intermedia (Pi), mean ± SD log (Geq/mL): 4.09 ± 0.16^∗ log (Geq/mL)

## OC[C@H]1O[C@@H](O[C@H]2[C@H](O)[C@@H](O)[C@@H](O)O[C@@H]2CO)[C@H](O)[C@@H](O)[C@H]1O [D-lactose, α-D-lactose]
A. actinomycetemcomitans; substrate 1% (w/v)
  absolute abundance of A. actinomycetemcomitans (Aa), mean ± SD log (Geq/mL): 9.44 ± 0.41 log (Geq/mL)
A. actinomycetemcomitans; substrate 1 M in PBS, n = 3
  absolute abundance of A. actinomycetemcomitans (Aa), mean ± SD log (Geq/mL): 7.87 ± 0.04^∗ log (Geq/mL)
P. intermedia; substrate 1% (w/v)
  absolute abundance of P. intermedia (Pi), mean ± SD log (Geq/mL): 8.13 ± 0.25 log (Geq/mL)
P. intermedia; substrate 1 M in PBS, n = 3
  absolute abundance of P. intermedia (Pi), mean ± SD log (Geq/mL): 4.05 ± 0.61^∗ log (Geq/mL)
[1]
  Mean ± SD IL-8 levels in HOK-18A supernatant: < LOD^∗

## OC[C@H]1O[C@H](O[C@H]2O[C@H](CO)[C@@H](O)[C@H](O)[C@H]2O)[C@H](O)[C@@H](O)[C@@H]1O [D-trehalose, D-(+)-trehalose]
A. actinomycetemcomitans; substrate 1% (w/v)
  absolute abundance of A. actinomycetemcomitans (Aa), mean ± SD log (Geq/mL): 9.28 ± 0.43 log (Geq/mL)
A. actinomycetemcomitans; substrate 1 M in PBS, n = 3
  absolute abundance of A. actinomycetemcomitans (Aa), mean ± SD log (Geq/mL): 7.86 ± 0.22^∗ log (Geq/mL)
P. intermedia; substrate 1% (w/v)
  absolute abundance of P. intermedia (Pi), mean ± SD log (Geq/mL): 7.88 ± 0.33 log (Geq/mL)
P. intermedia; substrate 1 M in PBS, n = 3
  absolute abundance of P. intermedia (Pi), mean ± SD log (Geq/mL): 4.47 ± 0.60^∗ log (Geq/mL)

## OC[C@H]1O[C@H](OC[C@H]2O[C@H](O[C@]3(CO)O[C@H](CO)[C@@H](O)[C@@H]3O)[C@H](O)[C@@H](O)[C@@H]2O)[C@H](O)[C@@H](O)[C@H]1O [D-raffinose, D-(+)-raffinose]
A. actinomycetemcomitans; substrate 1% (w/v)
  absolute abundance of A. actinomycetemcomitans (Aa), mean ± SD log (Geq/mL): 9.14 ± 0.12 log (Geq/mL)
A. actinomycetemcomitans; substrate 1 M in PBS, n = 3
  absolute abundance of A. actinomycetemcomitans (Aa), mean ± SD log (Geq/mL): 8.30 ± 0.29^∗ log (Geq/mL)
P. intermedia; substrate 1% (w/v)
  absolute abundance of P. intermedia (Pi), mean ± SD log (Geq/mL): 7.83 ± 0.32 log (Geq/mL)
P. intermedia; substrate 1 M in PBS, n = 3
  absolute abundance of P. intermedia (Pi), mean ± SD log (Geq/mL): 5.21 ± 0.77^∗ log (Geq/mL)

Reference: US20230346670A1, “Prebiotic Oral Care Compositions and Methods” (Colgate-Palmolive Company, priority 2020, published 2023)
